Measured values from publication PMC8066102, “Metabolic Profiles of New Unsymmetrical Bisacridine Antitumor Agents in Electrochemical and Enzymatic Noncellular Systems and in Tumor Cells” (Pharmaceuticals, 2021).
Read-outs that look alike come from different tables or passages of the source.

Key:
[1] = pKa determination by spectrophotometric titration; assay type: physicochemical; conditions: 23 aqueous buffer solutions, pH 1.5-11, pH 1.5, 0.02 mM compound, pH 1.5-11, UV-vis, principal component analysis
Protocol: The concentration of the compounds in the working solutions was 0.02 mM, pH was changed in the range 1.5–11 at 23 buffer solutions: 1.5–3.5 (interval 0.5 unit—HCl solution), 4.0–5.5 (interval 0.5 unit—acetic buffer), 6.1–7.5 (interval 0.2 unit—PIPES (2-[4-(2-sulphoethyl)piperazine-1-ethanesulphonic acid) buffer), 7.7–8.1 (interval 0.2 unit—HEPES (4-(2-hydroxyethyl)piperazine-1-ethanesulphonic acid) buffer) and 9–11 (interval 1 unit—borate buffer).
PKa values for tested UAs were determined by spectrophotometric titration using a Cary 300 Bio instrument. The UV-vis spectra obtained for all solutions in the examined pH range were subjected to the chemometric technique principal component analysis. This procedure makes it possible to determine the number of spectral forms present in the tested samples and to estimate the mole fractions for each of them. To determine pKa values the relationships between the mole fractions of individual spectral forms and the pH of the samples were used. The first approximation of pKa values have been assigned to the values of pH corresponding to the central points of each titration wave. Numerical optimization by the adjustment of pKa values to the obtained molar fractions allowed to refine these values and the cross-validation procedure let to determine their standard deviations.

[2] = target: T1, UGT1A1 (Homo sapiens, UniProt P22309); experiment: Glucuronidation with recombinant UGT1A1; assay type: in vitro ADME; design: His tag; purchased Corning, NY, USA (through DIAG-MED, Poland); host or cells: baculovirus-insect cells (Supersomes); Results say Sf9 cells; key: −: the lack of UGT activity; +: the significant UGT activity; conditions: 0.05 mM compound, 1 mg/mL UGT, 5 mM UDPGA
T1 sequence (P22309 26-533): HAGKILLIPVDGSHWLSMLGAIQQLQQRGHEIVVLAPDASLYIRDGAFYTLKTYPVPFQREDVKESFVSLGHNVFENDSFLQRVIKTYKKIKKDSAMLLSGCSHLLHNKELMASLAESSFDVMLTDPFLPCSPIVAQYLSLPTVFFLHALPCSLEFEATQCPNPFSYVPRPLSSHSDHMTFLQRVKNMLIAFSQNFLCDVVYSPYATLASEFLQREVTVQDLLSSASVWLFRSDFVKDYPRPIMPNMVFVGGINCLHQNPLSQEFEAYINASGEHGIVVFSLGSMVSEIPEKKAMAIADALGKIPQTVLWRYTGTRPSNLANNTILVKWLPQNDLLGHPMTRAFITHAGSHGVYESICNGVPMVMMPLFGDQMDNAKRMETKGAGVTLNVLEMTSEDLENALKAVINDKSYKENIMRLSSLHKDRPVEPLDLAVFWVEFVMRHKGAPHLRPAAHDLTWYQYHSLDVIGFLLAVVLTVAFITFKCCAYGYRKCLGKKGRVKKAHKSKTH
Protocol: (§1) Recombinant UGT isoform protein (1 mg/mL) was assayed for activity toward tested UAs as follows. The proteins were incubated in a buffer containing 0.1 M HEPES (pH 7.4), 8 mM MgCl2 and alamethicin (25 μg/mL) with either 0.05 mM substrate in total volume 70 µL (alamethicin was added to permeabilize the membrane). Substrates were also in buffer HEPES, pH 7.4. Reactions were started by the addition of UDPGA (5 mM) and were incubated for specified time at 37 °C. The reactions were stopped by the addition of 8.75 µL of 1 M HCl, followed by centrifugation at 13400 rpm for 10 min to pellet the denatured protein. The supernatant fractions were used for HPLC analysis. Control reactions omitting substrate were run with each assay. All incubations were performed in two repetitions.

[3] = target: T2, P4503A4 (Homo sapiens, UniProt P08684); experiment: Metabolism with human recombinant P4503A4; assay type: in vitro ADME; conditions: 0.05 mM compound, 1 mg/mL P4503A4, 2 mM NADPH, 30 min
T2 construct: purchased Cypex, Dundee, Scotland, UK (through Tebu-Bio); host or cells: Escherichia coli (Bactosomes)
T2 sequence (P08684 whole entry): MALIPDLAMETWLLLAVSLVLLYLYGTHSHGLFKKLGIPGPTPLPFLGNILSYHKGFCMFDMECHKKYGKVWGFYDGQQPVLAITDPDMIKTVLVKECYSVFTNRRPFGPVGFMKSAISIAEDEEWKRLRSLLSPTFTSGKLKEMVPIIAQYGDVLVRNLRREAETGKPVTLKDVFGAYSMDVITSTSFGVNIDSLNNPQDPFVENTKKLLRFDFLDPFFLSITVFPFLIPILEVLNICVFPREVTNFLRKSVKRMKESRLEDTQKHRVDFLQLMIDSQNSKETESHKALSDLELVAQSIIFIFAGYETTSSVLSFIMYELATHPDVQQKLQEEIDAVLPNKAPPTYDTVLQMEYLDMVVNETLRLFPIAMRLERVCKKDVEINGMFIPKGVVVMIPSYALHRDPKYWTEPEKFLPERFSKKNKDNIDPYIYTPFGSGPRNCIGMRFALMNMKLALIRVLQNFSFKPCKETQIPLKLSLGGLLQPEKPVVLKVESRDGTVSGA
Protocol: UT-RLMs (2 mg/mL) and P450-RLMs induced with Dex, 3MC, or PB and recombinant P4502C19 and P4503A4 (1 mg/mL) were assayed for activity toward tested UAs as follows. The proteins were incubated in a buffer containing 0.1 M HEPES (pH 7.4), 2 mM MgCl2 with 0.05 mM substrate in total volume 70 µL. Substrates were added also in buffer HEPES, pH 7.4. Reactions were started by the addition of NADPH (2 mM) and were incubated for specified time at 37 °C. The reactions were stopped by the addition of 8.75 µL of 1 M HCl, followed by centrifugation at 13,400 rpm for 10 min to pellet the denatured protein. The supernatant fractions were used for high-performance liquid chromatography (HPLC) analysis. Control reactions omitting substrate were run with each assay. All incubations were performed in two repetitions.

[4] = target: T3, UGT 2B4 (Homo sapiens, UniProt P06133); experiment: Glucuronidation with recombinant UGT2B4; assay type: in vitro ADME; design: key: −: the lack of UGT activity; +: the significant UGT activity; conditions: 0.05 mM compound, 1 mg/mL UGT, 5 mM UDPGA
T3 construct: purchased Corning, NY, USA (through DIAG-MED, Poland); host or cells: baculovirus-insect cells (Supersomes)
T3 sequence (P06133 24-528): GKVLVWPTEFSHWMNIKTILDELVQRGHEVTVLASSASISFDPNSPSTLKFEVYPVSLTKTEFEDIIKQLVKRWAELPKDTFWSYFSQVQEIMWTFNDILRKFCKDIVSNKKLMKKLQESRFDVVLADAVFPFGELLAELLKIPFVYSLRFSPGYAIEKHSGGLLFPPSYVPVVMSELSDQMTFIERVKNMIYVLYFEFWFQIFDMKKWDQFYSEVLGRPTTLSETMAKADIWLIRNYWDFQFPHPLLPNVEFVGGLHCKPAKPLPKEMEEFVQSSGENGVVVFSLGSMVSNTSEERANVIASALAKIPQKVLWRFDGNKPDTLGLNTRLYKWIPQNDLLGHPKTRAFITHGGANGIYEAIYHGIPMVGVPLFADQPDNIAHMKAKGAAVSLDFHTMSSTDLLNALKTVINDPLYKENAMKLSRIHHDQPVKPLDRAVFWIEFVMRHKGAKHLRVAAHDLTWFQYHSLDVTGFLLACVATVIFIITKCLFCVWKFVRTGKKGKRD
Protocol: as §1

pKa ([1]; read-out: pKa 1) | pKa ([1]; read-out: pKa 2) | pKa ([1]; read-out: pKa 3) | Glucuronidation potency UGT 1A1 [2] | substrate transformed [3] | Glucuronidation potency UGT 2B4 [4] | SMILES
2.33 | 6.37 | 7.5 | + | 30% | − | Cc1ccc([N+](=O)[O-])c2c(NCCCN(C)CCCNc3ccc4ncn5c6ccc(O)cc6c(=O)c3c45)c3ccccc3nc12 [C-2045]
2.22 | 6.01 | 7.41 | − | 72% | − | CN(CCCNc1c2ccccc2nc2cccc([N+](=O)[O-])c12)CCCNc1ccc2ncn3c4ccccc4c(=O)c1c23 [C-2028]
2.19 | 6.19 | 7.49 | − | approximately 77% | − | Cc1ccc([N+](=O)[O-])c2c(NCCCN(C)CCCNc3ccc4ncn5c6ccccc6c(=O)c3c45)c3ccccc3nc12 [C-2053]
